Assay results published in US9856220B2 (AbbVie Deutschland GmbH & Co. KG, priority 2011, dated 2018).

Biological target: PDE10A (Homo sapiens (Human), UniProt Q9Y233)
Assay: Measurement of PDE activity (recombinant PDE, cAMP HTRF)
Format: biochemical
Settings: 20 nM cyclic nucleotide substrate, 60 minutes at 29 C
Description: a) Measurement of PDE Activity
The recombinant PDE proteins are used in in vitro enzymatic reaction for measurement of PDE activity. These recombinant proteins, including PDE10A (human, rat and mouse PDE10) and isoforms of PDEs 1, 3, 4, and 5, were purchased from commercial vendor BPS Bioscience. The enzymatic activity of PDEs was determined by cAMP measurement kit from CisBio (IBA) using HTRF technology.
The PDE enzymatic reaction was carried out in assay buffer (20 mM Tris-HCl pH7.5, 10 mM MgCl2, 0.1% bovine serum albumin) containing enzyme and substrate. […] The substrate cyclic nucleotide (cAMP or cGMP) concentration used in the assay was 20 nM for PDE10, and 100 nM for other PDEs. The inhibitory effect of compound was determined by incubating various concentration of inhibitor in the enzymatic assay. […] Next, the compound at varying concentration was mixed with PDE enzyme. The reaction was initiated by addition of cyclic nucleotide substrate, and incubated for 60 minutes at 29 C. The reaction was stopped by addition of lysis buffer from assay kit. The cAMP-d2 and anti-cAMP cryptate in the lysis buffer detected the level of cAMP left from the PDE hydrolysis reaction. […] Thus, IC50 value of inhibitor can be obtained by plotting inhibitor concentration against PDE activity at that concentration.

Sequence of PDE10A (Q9Y233 whole entry, species assumed): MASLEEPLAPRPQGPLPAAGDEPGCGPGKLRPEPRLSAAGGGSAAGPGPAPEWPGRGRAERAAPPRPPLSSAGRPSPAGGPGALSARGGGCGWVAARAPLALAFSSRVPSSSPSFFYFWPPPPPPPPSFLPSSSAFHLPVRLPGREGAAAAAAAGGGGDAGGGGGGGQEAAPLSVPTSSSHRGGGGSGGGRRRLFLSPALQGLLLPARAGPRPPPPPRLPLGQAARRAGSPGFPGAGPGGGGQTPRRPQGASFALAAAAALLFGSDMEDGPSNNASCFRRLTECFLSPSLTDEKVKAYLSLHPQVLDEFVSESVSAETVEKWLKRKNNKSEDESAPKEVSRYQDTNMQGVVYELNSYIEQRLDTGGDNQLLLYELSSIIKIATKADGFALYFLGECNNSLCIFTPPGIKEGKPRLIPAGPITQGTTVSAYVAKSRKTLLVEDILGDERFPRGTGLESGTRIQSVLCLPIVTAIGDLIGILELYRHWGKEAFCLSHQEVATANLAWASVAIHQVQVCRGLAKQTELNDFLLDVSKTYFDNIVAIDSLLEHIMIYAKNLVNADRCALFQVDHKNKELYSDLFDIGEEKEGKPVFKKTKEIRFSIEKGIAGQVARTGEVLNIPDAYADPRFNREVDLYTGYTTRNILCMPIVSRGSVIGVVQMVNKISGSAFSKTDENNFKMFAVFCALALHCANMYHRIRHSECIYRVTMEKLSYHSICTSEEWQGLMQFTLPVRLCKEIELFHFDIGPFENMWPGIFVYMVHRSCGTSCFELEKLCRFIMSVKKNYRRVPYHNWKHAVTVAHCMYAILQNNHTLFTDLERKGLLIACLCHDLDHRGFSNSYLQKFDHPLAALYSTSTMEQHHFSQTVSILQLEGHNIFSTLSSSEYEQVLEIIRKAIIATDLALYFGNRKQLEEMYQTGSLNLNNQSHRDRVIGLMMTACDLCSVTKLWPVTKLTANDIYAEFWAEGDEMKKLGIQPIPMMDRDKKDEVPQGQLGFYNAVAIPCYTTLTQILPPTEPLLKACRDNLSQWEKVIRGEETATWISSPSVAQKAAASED

Row | Structure (SMILES) | IC50 [nM]
1 | CCn1cc(C(=O)NC(C)CC(C)C)c2cc(OC)c(OC)cc2c1=O (stereo not drawn) [Example 23, 2-Ethyl-6,7-dimethoxy-1-oxo-1,2-dihydro-isoquinoline-4-carboxylic acid (1,3-dimethyl-butyl)-amide] | 200 to 500
2 | CCn1cc(C(=O)NCCC(C)(C)C)c2cc(OC)c(OC)cc2c1=O [Example 24, 2-Ethyl-6,7-dimethoxy-1-oxo-1,2-dihydro-isoquinoline-4-carboxylic acid (3,3-dimethyl-butyl)-amide] | 200 to 500
3 | CCn1cc(C(=O)NC(C)c2ccccc2)c2cc(OC)c(OC)cc2c1=O (stereo not drawn) [Example 29, 2-Ethyl-6,7-dimethoxy-1-oxo-1,2-dihydro-isoquinoline-4-carboxylic acid (1-phenyl-ethyl)-amide] | 200 to 500
4 | CCn1cc(C(=O)NCc2cccc(F)c2)c2cc(OC)c(OC)cc2c1=O [Example 31, 2-Ethyl-6,7-dimethoxy-1-oxo-1,2-dihydro-isoquinoline-4-carboxylic acid 3-fluoro-benzylamide] | 200 to 500
5 | CCn1cc(C(=O)NCc2ccc(F)cc2)c2cc(OC)c(OC)cc2c1=O [Example 32, 2-Ethyl-6,7-dimethoxy-1-oxo-1,2-dihydro-isoquinoline-4-carboxylic acid 4-fluoro-benzylamide] | 200 to 500
6 | CCn1cc(C(=O)NCc2ccc(F)cc2F)c2cc(OC)c(OC)cc2c1=O [Example 34, 2-Ethyl-6,7-dimethoxy-1-oxo-1,2-dihydro-isoquinoline-4-carboxylic acid 2,4-difluoro-benzylamide] | 200 to 500
7 | CCn1cc(C(=O)NCc2c(F)cccc2F)c2cc(OC)c(OC)cc2c1=O [Example 35, 2-Ethyl-6,7-dimethoxy-1-oxo-1,2-dihydro-isoquinoline-4-carboxylic acid 2,6-difluoro-benzylamide] | 200 to 500
8 | CCn1cc(C(=O)N2Cc3ccccc3C2)c2cc(OC)c(OC)cc2c1=O [Example 51, 4-(1,3-Dihydro-isoindole-2-carbonyl)-2-ethyl-6,7-dimethoxy-2H-isoquinolin-1-one] | 200 to 500
9 | CCn1nc(C(=O)NC2CCc3ncccc32)c2cc(OC)c(OC)cc2c1=O (stereo not drawn) [Example 129, 3-Ethyl-6,7-dimethoxy-4-oxo-3,4-dihydro-phthalazine-1-carboxylic acid (6,7-dihydro-5H-[1]pyrindin-5-yl)-amide] | < 100
10 | CCn1cc(C(=O)NCc2cccc(Cl)c2)c2cc(OC)c(OC)cc2c1=O [Example 142, N-(3-Chlorobenzyl)-2-ethyl-6,7-dimethoxy-1-oxo-1,2-dihydroisoquinoline-4-carboxamide] | 100 to 200
11 | CCn1cc(C(=O)Nc2cccc(C)c2)c2cc(OC)c(OC)cc2c1=O [Example 145, 2-Ethyl-6,7-dimethoxy-1-oxo-N-m-tolyl-1,2-dihydroisoquinoline-4-carboxamide] | 200 to 500
12 | CCn1cc(C(=O)NCc2cccnc2)c2cc(OC)c(OC)cc2c1=O [Example 148, 2-Ethyl-6,7-dimethoxy-1-oxo-N-(pyridin-3-ylmethyl)-1,2-dihydroisoquinoline-4-carboxamide] | 200 to 500
13 | CCn1cc(C(=O)NCc2ccccn2)c2cc(OC)c(OC)cc2c1=O [Example 149, 2-Ethyl-6,7-dimethoxy-1-oxo-N-(pyridin-2-ylmethyl)-1,2-dihydroisoquinoline-4-carboxamide] | 200 to 500
14 | CCn1cc(C(=O)Nc2ccccc2)c2cc(OC)c(OC)cc2c1=O [Example 151, 2-Ethyl-6,7-dimethoxy-1-oxo-N-phenyl-1,2-dihydroisoquinoline-4-carboxamide] | 200 to 500
15 | CCn1cc(C(=O)NCc2ccc(OC)cc2)c2cc(OC)c(OC)cc2c1=O [Example 152, 2-Ethyl-6,7-dimethoxy-N-(4-methoxybenzyl)-1-oxo-1,2-dihydroisoquinoline-4-carboxamide] | 200 to 500
16 | CCn1cc(C(=O)NCc2cccc(C)c2)c2cc(OC)c(OC)cc2c1=O [Example 153] | 100 to 200

Now from value to compound:

Row | IC50 [nM] | Structure (SMILES)
17 | 100 to 200 | CCCCNC(=O)c1cn(CC)c(=O)c2cc(OC)c(OC)cc12 [Example 1, 2-Ethyl-6,7-dimethoxy-1-oxo-1,2-dihydro-isoquinoline-4-carboxylic acid butylamide]
18 | 200 to 500 | CCCC(C)NC(=O)c1cn(CC)c(=O)c2cc(OC)c(OC)cc12 (stereo not drawn) [Example 15, 2-Ethyl-6,7-dimethoxy-1-oxo-1,2-dihydro-isoquinoline-4-carboxylic acid (1-methyl-butyl)-amide]
19 | 200 to 500 | CCC(C)CNC(=O)c1cn(CC)c(=O)c2cc(OC)c(OC)cc12 (stereo not drawn) [Example 20, 2-Ethyl-6,7-dimethoxy-1-oxo-1,2-dihydro-isoquinoline-4-carboxylic acid (2-methyl-butyl)-amide]
20 | 200 to 500 | CCCCCNC(=O)c1cn(CC)c(=O)c2cc(OC)c(OC)cc12 [Example 21, 2-Ethyl-6,7-dimethoxy-1-oxo-1,2-dihydro-isoquinoline-4-carboxylic acid pentylamide]
21 | 100 to 200 | CCn1cc(C(=O)NCc2ccccc2)c2cc(OC)c(OC)cc2c1=O [Example 26, 2-Ethyl-6,7-dimethoxy-1-oxo-1,2-dihydro-isoquinoline-4-carboxylic acid benzylamide]
22 | 200 to 500 | CCn1cc(C(=O)NCC2CCCCC2)c2cc(OC)c(OC)cc2c1=O [Example 28, 2-Ethyl-6,7-dimethoxy-1-oxo-1,2-dihydro-isoquinoline-4-carboxylic acid cyclohexylmethyl-amide]
23 | 200 to 500 | CCn1cc(C(=O)NCc2ccccc2F)c2cc(OC)c(OC)cc2c1=O [Example 30, 2-Ethyl-6,7-dimethoxy-1-oxo-1,2-dihydro-isoquinoline-4-carboxylic acid 2-fluoro-benzylamide]
24 | 200 to 500 | CCn1cc(C(=O)NCc2cccc(F)c2F)c2cc(OC)c(OC)cc2c1=O [Example 33, 2-Ethyl-6,7-dimethoxy-1-oxo-1,2-dihydro-isoquinoline-4-carboxylic acid 2,3-difluoro-benzylamide]
25 | 100 to 200 | CCn1cc(C(=O)NCc2ccc(F)c(F)c2)c2cc(OC)c(OC)cc2c1=O [Example 36, 2-Ethyl-6,7-dimethoxy-1-oxo-1,2-dihydro-isoquinoline-4-carboxylic acid 3,4-difluoro-benzylamide]
26 | 100 to 200 | CCn1cc(C(=O)NCc2cc(F)cc(F)c2)c2cc(OC)c(OC)cc2c1=O [Example 37, 2-Ethyl-6,7-dimethoxy-1-oxo-1,2-dihydro-isoquinoline-4-carboxylic acid 3,5-difluoro-benzylamide]
27 | < 100 | CCC(CC)n1cc(C(=O)NC2CCc3ccccc32)c2cc(OC)c(OC)cc2c1=O (stereo not drawn) [Example 135, 2-(1-Ethyl-propyl)-6,7-dimethoxy-1-oxo-1,2-dihydro-isoquinoline-4-carboxylic acid indan-1-ylamide]
28 | 200 to 500 | CCn1cc(C(=O)NCc2ccncn2)c2cc(OC)c(OC)cc2c1=O [Example 139, 2-Ethyl-6,7-dimethoxy-1-oxo-N-(pyrimidin-4-ylmethyl)-1,2-dihydroisoquinoline-4-carboxamide]
29 | 200 to 500 | CCn1cc(C(=O)NCc2ccccc2OC)c2cc(OC)c(OC)cc2c1=O [Example 140]
30 | 200 to 500 | CCn1cc(C(=O)Nc2ccccc2OC)c2cc(OC)c(OC)cc2c1=O [Example 146, 2-Ethyl-6,7-dimethoxy-N-(2-methoxyphenyl)-1-oxo-1,2-dihydroisoquinoline-4-carboxamide]
